Results as given in publication PMC6522510 (Nature Communications, 2019).
Where a name gives a salt, the structure may show the parent alone. Read-outs that look alike come from different tables or passages of the source. Square brackets hold non-standard residues; d marks the D form. Peptide text beside a SMILES is read from it. * marks the point of attachment. Sta = CC(C)C[C@H](N)[C@@H](O)CC(=O)O; Isovaleryl = CC(C)CC(=O)*

Experiments:
Set-up in all cases: species or system AML cell lines (8); Primary HTS, single concentration about 10 uM, Cell Titer Glo viability; log10 luminescence, per cent inhibition relative to cycloheximide control
Details in all cases: 72 h, relative to cycloheximide control, log10 luminescence, inhibitor
[1] = system: MOLM-13
[2] = system: M07e
[3] = system: CMS
[4] = system: CMK
[5] = system: CHRF288-11
[6] = system: U937
[7] = system: MV4-11
[8] = system: ML-2

SMILES	MOLM-13 %inh ([1]; MOLM-13 %inh, 10 µM)	M07e %inh ([2]; M07e %inh, 10 µM)	CMS %inh ([3]; CMS %inh, 10 µM)	CMK %inh ([4]; CMK %inh, 10 µM)	CHRF288-11 %inh ([5]; CHRF288-11 %inh, 10 µM)	U937 %inh ([6]; U937 %inh, 10 µM)	MV4-11 %inh ([7]; MV4-11 %inh, 10 µM)	ML-2 %inh ([8]; ML-2 %inh, 10 µM)	MOLM-13 %inh [1]	M07e %inh [2]	CMS %inh [3]	CMK %inh [4]	CHRF288-11 %inh [5]	U937 %inh [6]	MV4-11 %inh [7]	ML-2 %inh [8]
CN1CCC(C(=O)Nc2n[nH]c3nc(-c4ccc(O)cc4)c(Br)cc23)CC1 [SJ000573086-2, RW100084-040A1 | AN100368-077A1]	108.5%	63.44%	94.2%	69.83%	68.5%	85.17%	86.37%	61.94%	–	–	–	–	–	–	–	–
CS(=O)(=O)CCNCc1ccoc1-c1ccc2ncnc(Nc3ccc(OCc4ccccc4)cc3)c2c1 [SJ000573022-1, U12271/142/3]	–	–	–	–	–	–	–	–	26.01%	4.198%	-1.789%	1.228%	3.335%	-0.4603%	13.73%	0.6017%
COCCOC(=O)C1=C(C)NC(C)=C(C(=O)OC(C)C)C1c1cccc([N+](=O)[O-])c1 (centres unmarked) [SJ000285435-9, NIMODIPINE]	3.201%	0.4803%	-2.02%	3.053%	6.868%	7.911%	8.576%	2.121%	–	–	–	–	–	–	–	–
COc1cc2ncn(-c3cc(OCCc4ccccc4)c(C(N)=O)s3)c2cc1OC [SJ000573025-1, U19479/153/8]	–	–	–	–	–	–	–	–	2.298%	0.3839%	-1.969%	4.39%	0.4642%	0.712%	2.077%	0.6694%
CC(C)CC(=O)N[C@H](C(=O)N[C@H](C(=O)N[C@@H](CC(C)C)[C@@H](O)CC(=O)N[C@@H](C)C(=O)N[C@@H](CC(C)C)[C@@H](O)CC(=O)O)C(C)C)C(C)C [SJ000287258-3, PEPSTATIN A] (Isovaleryl-VV[Sta]A[Sta]-OH)	-0.1246%	1.266%	1.08%	-4.878%	20.49%	4.393%	0.8934%	1.096%	–	–	–	–	–	–	–	–
NC(=O)c1ccc2c(-c3ccnc(NCCCO)n3)c(-c3ccc(F)cc3)nn2c1 [SJ000573349-1, U15445/74/1]	–	–	–	–	–	–	–	–	4.269%	8.993%	-1.938%	3.481%	6.72%	3.919%	0.006279%	0.07673%
CN(C)CCCNc1nccc(-c2c(-c3ccc(F)cc3)nn3cc(C(F)(F)F)ccc23)n1 [SJ000573200-1, U14929/105/1]	–	–	–	–	–	–	–	–	3.151%	5.185%	-0.7094%	6.318%	4.716%	2.291%	2.615%	2.988%
CCCN1CCCC(c2ccc(Nc3nc(Nc4cc(F)ccc4C(N)=O)c4cc[nH]c4n3)c(OC)c2)C1 (centres unmarked) [SJ000573337-1, U23441/128/1]	–	–	–	–	–	–	–	–	102.6%	41.75%	31.15%	49.26%	108.4%	43.81%	85.37%	69.05%
Cn1c(=O)c(Oc2ccc(F)cc2)cc2cnc(NC3CCOCC3)nc21 [SJ000580972-1]	–	–	–	–	–	–	–	–	-0.3408%	1.712%	3.35%	4.681%	0.05441%	2.684%	-1.036%	-0.6256%
O=C1NC(=O)/C(=C\c2ccc3nccnc3c2)S1 [SJ000534768-3, PI 3-K-GAMMA-INHIBITOR | 648450-29-7 | AS-605240 | AS605240 | PI 3-KY INHIBITOR]	3.402%	2.407%	-2.146%	-0.8645%	-5.698%	-0.7574%	0.09671%	-0.2464%	–	–	–	–	–	–	–	–
CCOCCn1c(N2CCCN(C)CC2)nc2ccccc21 [SJ000556751-1, EMEDASTINE DIFUMARATE]	–	–	–	–	–	–	–	–	8.131%	0.9271%	-0.1534%	-0.9686%	-0.4103%	0.3803%	-1.235%	1.809%
COc1ccc(-c2nn3ncccc3c2-c2ccnc(Nc3cccc(C(F)(F)F)c3)n2)cc1 [SJ000573079-1, U17838/180/3]	–	–	–	–	–	–	–	–	3.38%	14.72%	13.73%	4.001%	5.707%	2.119%	8.211%	-0.6403%
CNC(=O)[C@H](Cc1c[nH]c2ccccc12)NC(=O)[C@@H](CC(=O)NO)CC(C)C [SJ000755078-1, GM 6001 | ILOMASTAT (GM6001, GALARDIN)]	–	–	–	–	–	–	–	–	3.013%	-0.3296%	-0.9664%	-1.76%	9.385%	9.818%	1.237%	-0.512%
CC1=C(C(=O)Nc2ccc3[nH]ncc3c2)C(c2ccc(F)cc2)N=C(c2ccc(C(F)(F)F)nc2)N1 (centres unmarked) [SJ000573083-1, GW204431-043A1]	–	–	–	–	–	–	–	–	1.317%	0.1515%	-1.221%	6.755%	5.88%	-1.3%	0.5281%	3.386%
COCCCC/C(=N\OCCN)c1ccc(C(F)(F)F)cc1 [SJ000287487-5, FLUVOXAMINE MALEATE]	–	–	–	–	–	–	–	–	5.945%	1.409%	-2.805%	-1.719%	7.313%	7.709%	0.9693%	4.445%
COc1ccccc1C(=O)c1cnc(NC2CCN(S(C)(=O)=O)CC2)nc1N [SJ000581142-1]	–	–	–	–	–	–	–	–	12.27%	6.858%	7.4%	37.79%	2.52%	8.409%	2.743%	3.568%
